The source of these data is patent US20130035343A1, “COMBINATION OF ORGANIC COMPOUNDS” (priority 2010, published 2013).

For the data set, the system named is patient-derived HCC xenograft lines (07-0409, 29-0909A, 01-0909). Kind of data set: Patient-derived HCC xenograft models in SCID mice. Conditions: for tumor growth rate of xenografts / tumor regressions: single agent therapy, 30 mg/kg Compound of Formula I or 5 mg/kg RAD001 orally daily, HCC07-0409. A general note: In xenograft studies the graft and the host belong to different species.

Where [1] appears, read: 30 mg/kg Compound of Formula I orally daily, SCID mice.

Method: Xenograft models: All mice were provided with sterilized food and water ad libitum and housed in negative pressure isolators with 12 hours light/dark cycle. Primary HCCs have previously been used to create xenograft lines, of which the following lines (07-0409, 29-0909A, 01-0909) were used to establish tumors in male SCID mice (Animal Resources Centre, Canning Vale, Western Australia) aged 9 to 10 weeks.
Tumor treatment: Compound of Formula I and RAD001 was dissolved in vehicle at an appropriate concentration before treatment. Mice bearing indicated tumors were orally administered 5 mg/kg RAD001 or 30 mg/kg Compound of Formula I daily, or two compounds combined for indicated days. Each treatment group was comprised of 10 animals and each experiment was repeated at least twice. Treatment started on day 7 after tumor implantation. By this time, the tumors reached the size of approximately 100 mm^3. Tumor growth was monitored and tumor volume was calculated as described. At the end of the study, the mice were sacrificed with body and tumor weights recorded and the tumors harvested for analysis. The efficacy of Compound of Formula I was determined by T/C ratio, where T and C are median weight of drug-treated and vehicle-treated tumor respectively at the end of treatment.

Consider `CN1CCN(c2ccc3nc(-c4c(N)c5c(F)cccc5[nH]c4=O)[nH]c3c2)CC1` [Compound of Formula I, 4-Amino-5-fluoro-3-[6-(4-methylpiperazin-1-yl)-1H-benzimidazol-2-yl]-1H-quinolin-2-one], for which the “tumor growth rate of xenografts” value was “inhibited” and the tumor regressions entry was “did not induce tumor regressions”. Besides, under setting [1], the “acute mortality throughout treatment” value is on record as “no acute mortality” and the “body weight loss throughout treatment” value is given as “no significant weight loss”. Besides, the “anti-tumor activities on patient-derived HCC xenograft lines” value (lines 07-0409, 29-0909A, 01-0909, 30 mg/kg orally daily) was “observed”.
As for `CO[C@H]1C[C@@H]2CC[C@@H](C)[C@@](O)(O2)C(=O)C(=O)N2CCCC[C@H]2C(=O)O[C@H]([C@H](C)C[C@@H]2CC[C@@H](OCCO)[C@H](OC)C2)CC(=O)[C@H](C)/C=C(\C)[C@@H](O)[C@@H](OC)C(=O)[C@H](C)C[C@H](C)/C=C/C=C/C=C/1C` [RAD001, 40-O-(2-hydroxy)ethyl-rapamycin, reference compound], the “tumor growth rate of xenografts” value was “inhibited” and the tumor regressions entry is “did not induce tumor regressions”.
